The values that follow come from patent publication US20030175906A1, “Nuclease resistant chimeric oligonucleotides” (priority 2001, published 2003).

The test system of one series is Target RNA. The series is described as follows: Tm values of L-thymidine modified oligonucleotides against RNA. The class given is binding.
Series [1] is described as follows: In vivo nuclease stability of L/D-oligonucleotide chimera, full-length oligonucleotide in organs by CGE. Details: species or system BalbC mouse. As to conditions: IV bolus, after 24 h. The method, then: Here we report the in vivo nuclease stability of L/D-oligonucleotide chimera in mouse. We synthesized the phosphoramidite and CPG derived from L-thymidine, which was synthesized from a novel route [Jung, E. M.; Xu, Y. Tetrahedron Lett. 1997, 24, 4199-4202]. A 20 mer phosphorothioate oligonucleotide ISIS-120745 (antisense to mouse ICAM-1) was capped with L-2′-deoxy thymidine at 3′ and 5′-positions. The oligonucleotide was then administered IV bolus into BalbC mouse. After 24 h. mouse was sacrificed and the oligonucleotide was isolated from different organs. Percentage of full-length oligonucleotide present in different organs were analyzed by CGE.

Where only a bound is given, the exact number is not on record here.

Take “ISIS 120745: 5′ T*GC ATC CCC CAG GCC ACC AT* 3′, T* = L-Thymidine, all P=S; antisense to mouse ICAM-1 (antisense TGCATCCCCCAGGCCACCAT; chemistry not fully specified)”: the thermal shift (ΔTm) (as a rule, the shift of the melting midpoint relative to a reference) in the series with Target RNA is −1.76 °C. Also, the “intact full-length oligonucleotide isolated from all the major organs” value in series [1] is greater than 90%.

Regarding “ISIS 121785: 5′ T*C^oC^oGCGCTGTGATGCA^oT^oT* 3′ (SEQ ID NO:2), L-thymidine caps, 2′-O-MOE, all P=S (DNA NNNCGCTGTGATGCNNN; L-thymidine caps, 2'-O-MOE, phosphorothioate, chemistry not fully specified)”, in the series on Target RNA, the “Tm, Target RNA” value came to 63.3 °C and the ΔTm was found to be 2.7 °C.
